Drawing on patent US8236963B2, “Tricyclic spiro derivatives as CRTH2 modulators” (Merck Serono SA, priority 2005, dated 2012), this text covers Ki for 24 compounds.

One may read the Ki as a dissociation constant, usually derived from enzyme kinetics or from competition with a known ligand.

For the test, the target named is T1, CRTH2 (Homo sapiens, UniProt Q9Y5Y4).
T1 sequence (Q9Y5Y4 1-395): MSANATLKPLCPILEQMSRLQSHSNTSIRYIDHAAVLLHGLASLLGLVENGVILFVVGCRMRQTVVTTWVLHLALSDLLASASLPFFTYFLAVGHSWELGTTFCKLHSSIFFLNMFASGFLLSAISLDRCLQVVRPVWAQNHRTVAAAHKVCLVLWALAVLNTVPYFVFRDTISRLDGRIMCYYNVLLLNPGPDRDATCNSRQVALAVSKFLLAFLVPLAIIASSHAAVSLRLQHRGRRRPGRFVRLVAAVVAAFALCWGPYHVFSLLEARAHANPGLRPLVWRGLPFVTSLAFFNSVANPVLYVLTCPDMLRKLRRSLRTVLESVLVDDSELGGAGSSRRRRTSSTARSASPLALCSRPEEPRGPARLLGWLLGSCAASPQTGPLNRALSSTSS
As to the kind of experiment: Determination of Ki (radioligand binding assay, equilibrium competition against [3H]PGD2). On the set-up: expressed in transfected cells; host or cells: HEK293 (EBNA) cells, membrane preparation. The note with it: average of at least three independent dose response experiments. As for the experimental part:
The inhibitory activity can be investigated by a radioligand binding assay (Sawyer et al., Br. J. Pharmocol 2002, 137, 1163-72). The radioligand binding assay was performed at room temperature in binding buffer (10 mM HEPES/KOH pH […], with protease inhibitor cocktail tablets), containing 1.5 nM [^3H]PGD2 (Amersham, 156 Cie/mmol), and 10 μg of hCRTH2 HEK293 (EBNA) cell membrane protein in a final volume of 100 μl in 96 well plates (Corning, USA). Non-specific binding was determined in the presence of 1 μM PGD2 (Cayman, USA). Competing spiro-indolinones were diluted in dimethylsulphoxide so that the total volume of dimethylsulfoxide was kept constant at 1% dimethylsulphoxide (Me2SO) Serial dilutions of 100 μM and […] were prepared. 10 μl each of these spiro-indolinone stock solutions were added. Incubation (60 min at room temperature) was terminated by rapid filtration through 96 wells hydrophobic GF/C Unifilter plates (Whatman, USA). Filters were washed twice with 250 μl of Tris-HCl pH 7.4, 10 mM MnCl2, and residual radioligand bound to the filters was mixed to 100 μl of liquid scintillation cocktail (Optiphase Supermix, Perkin Elmer, USA) and binding activity was determined by counting residual radioligand using a 1450 Micro-beta scintillation counter (Wallac, UK). The following representative compounds were tested. All inhibited the binding of PGD2 to CRTH2 by more than 70%. • (1′-benzyl-5-chloro-2,2′,5′-trioxospiro[indole-3,3′-pyrrolidin]-1(2H)-yl)acetic acid • (1′-benzyl-5-fluoro-2,2′,5′-trioxospiro[indole-3,3′-pyrrolidin]-1(2H)-yl)acetic acid • 4-(1′-allyl-5-chloro-2,2′,5′-trioxospiro[indole-3,3′-pyrrolidin]-1(2H)-yl)butanoic acid • [5-chloro-1′-(2-methoxyethyl)-2,2′,5′-trioxospiro[indole-3,3′-pyrrolidin]-1(2H)-yl]acetic acid • 4-(1′-benzyl-5-chloro-2,2′,5′-trioxospiro[indole-3,3′-pyrrolidin]-1(2H)-yl)butanoic acid • (1′-benzyl-5-methoxy-2,2′,5′-trioxospiro[indole-3,3′-pyrrolidin]-1(2H)-yl)acetic acid • [5-fluoro-1′-[(2-methoxyethoxy)methyl]-2,2′,5′-trioxospiro[indole-3,3′-pyrrolidin]-1(2H)-yl]acetic acid • 4-(1′-allyl-5-fluoro-2,2′,5′-trioxospiro[indole-3,3′-pyrrolidin]-1(2H)-yl)butanoic acid • 4-(1′-benzyl-5-fluoro-2,2′,5′-trioxospiro[indole-3,3′-pyrrolidin]-1(2H)-yl)butanoic acid
Ki values were determined by equilibrium competition binding experiments against [^3H]PGD2. Ki values were calculated from the formula below and represent the average of at least three independent dose response experiments. The Ki values give the ligand concentrations necessary to inhibit 50% of the binding of [^3H]PGD2 to CRTH2. Ki=IC50/(1+[Concentration of Ligand]/Kd)]
All experiments were performed in 96 well plates, in a final volume of 100 μl according to the above described filtration assay. The concentration of membranes and 3 [H]PGD2, as well as the positive and negative controls were identical to the conditions described above.
`Cc1nc(CN2C(=O)CC3(C2=O)C(=O)N(CC(=O)O)c2ccc(Cl)cc23)cs1` (stereo not drawn) [Compound 1, [5-chloro-1′-[(2-methyl-1,3-thiazol-4-yl)methyl]-2,2′,5′-trioxospiro[indole-3,3′-pyrrolidin]-1(2H)-yl]acetic acid] yielded a Ki of 39 nM.

Take `O=C(O)CN1C(=O)C2(CC(=O)N(Cc3ccc4ccccc4n3)C2=O)c2cc(Cl)ccc21` (stereo not drawn) [Compound 3, [5-chloro-2,2′,5′-trioxo-1′-(quinolin-2-ylmethyl)spiro[indole-3,3′-pyrrolidin]-1(2H)-yl]acetic acid]: the inhibition constant Ki turned out to be 93 nM. Turning to `N#Cc1ccc(CN2C(=O)CC3(C2=O)C(=O)N(CC(=O)O)c2ccc(Cl)cc23)cc1` (stereo not drawn) [Compound 4, [5-chloro-1′-(4-cyanobenzyl)-2,2′,5′-trioxospiro[indole-3,3′-pyrrolidin]-1(2H)-yl]acetic acid], the affinity, expressed as Ki, was 89 nM. To `O=C(O)CN1C(=O)C2(CC(=O)N(Cc3cccc(Cl)c3)C2=O)c2cc(Cl)ccc21` (stereo not drawn) [Compound 5, [5-chloro-1′-(3-chlorobenzyl)-2,2′,5′-trioxospiro[indole-3,3′-pyrrolidin]-1(2H)-yl]acetic acid] belongs 73 nM; to `O=C(O)CN1C(=O)C2(CC(=O)N(Cc3ccc(Cl)c(Cl)c3)C2=O)c2cc(Cl)ccc21` (stereo not drawn) [Compound 6, [5-chloro-1′-(3,4-dichlorobenzyl)-2,2′,5′-trioxospiro[indole-3,3′-pyrrolidin]-1(2H)-yl]acetic acid], 100 nM.

In turn, `O=C(O)CN1C(=O)C2(CC(=O)N(Cc3cccc(Oc4ccccc4)c3)C2=O)c2cc(Cl)ccc21` (stereo not drawn) [Compound 10, [5-chloro-2,2′,5′-trioxo-1′-(3-phenoxybenzyl)spiro[indole-3,3′-pyrrolidin]-1(2H)-yl]acetic acid] displayed an inhibition constant Ki of 148 nM. As for `O=C(O)CN1C(=O)C2(CC(=O)N(CC3COc4ccccc4O3)C2=O)c2cc(Cl)ccc21` (stereo not drawn) [Compound 16, [5-chloro-1′-(2,3-dihydro-1,4-benzodioxin-2-ylmethyl)-2,2′,5′-trioxospiro[indole-3,3′-pyrrolidin]-1(2H)-yl]acetic acid], the figure is 213 nM; as for `O=C(O)CN1C(=O)C2(CC(=O)N(Cc3ccccn3)C2=O)c2cc(Cl)ccc21` (stereo not drawn) [Compound 17, [5-chloro-2,2′,5′-trioxo-1′-(pyridin-2-ylmethyl)spiro[indole-3,3′-pyrrolidin]-1(2H)-yl]acetic acid], 170 nM. In turn, `O=C(O)CN1C(=O)C2(CC(=O)N(Cc3ccc(C(F)(F)F)o3)C2=O)c2cc(Cl)ccc21` (stereo not drawn) [Compound 18, [5-chloro-2,2′,5′-trioxo-1′-{[5-(trifluoromethyl)-2-furyl]methyl}spiro[indole-3,3′-pyrrolidin]-1(2H)-yl]acetic acid] displayed a Ki of 270 nM.

With `O=C(O)CN1C(=O)C2(CC(=O)N(CCc3ccccc3)C2=O)c2cc(Cl)ccc21` (stereo not drawn) [Compound 23, [5-chloro-2,2′,5′-trioxo-1′-(2-phenylethyl)spiro[indole-3,3′-pyrrolidin]-1(2H)-yl]acetic acid], affinity was put at a Ki of 267 nM. For the compound `O=C(O)CN1C(=O)C2(CC(=O)N(Cc3cn4ccccc4n3)C2=O)c2cc(Cl)ccc21` (stereo not drawn) [Compound 24, [5-chloro-1′-(imidazo[1,2-a]pyridin-2-ylmethyl)-2,2′,5′-trioxospiro[indole-3,3′-pyrrolidin]-1(2H)-yl]acetic acid], the inhibitory constant (Ki) was determined as 705 nM. In turn, `O=C(O)CN1C(=O)C2(CC(=O)N(C/C=C/c3ccccc3)C2=O)c2cc(Cl)ccc21` (stereo not drawn) [Compound 25, [5-chloro-2,2′,5′-trioxo-1′-[(2E)-3-phenylprop-2-en-1-yl]spiro[indole-3,3′-pyrrolidin]-1(2H)-yl]acetic acid] yielded a Ki of 768 nM. `CCOCCN1C(=O)CC2(C1=O)C(=O)N(CC(=O)O)c1ccc(Cl)cc12` (stereo not drawn) [Compound 28, [5-chloro-1′-(2-ethoxyethyl)-2,2′,5′-trioxospiro[indole-3,3′-pyrrolidin]-1(2H)-yl]acetic acid]: the inhibitory constant (Ki) worked out at 1030 nM. Consider `O=C(O)CN1C(=O)C2(CC(=O)N(CCOCc3ccccc3)C2=O)c2cc(Cl)ccc21` (stereo not drawn) [Compound 29, [1′-[2-(benzyloxy)ethyl]-5-chloro-2,2′,5′-trioxospiro[indole-3,3′-pyrrolidin]-1(2H)-yl]acetic acid], for which the Ki worked out at 1130 nM. The compound `Cn1ccnc1CN1C(=O)CC2(C1=O)C(=O)N(CC(=O)O)c1ccc(Cl)cc12` (stereo not drawn) [Compound 32, [5-chloro-1′-[(1-methyl-1H-imidazol-2-yl)methyl]-2,2′,5′-trioxospiro[indole-3,3′-pyrrolidin]-1(2H)-yl]acetic acid] registered an inhibition constant Ki of 1820 nM. `O=C(O)CCCN1C(=O)C2(CC(=O)N(Cc3ccc(C(F)(F)F)cc3)C2=O)c2cc(Cl)ccc21` (stereo not drawn) [Compound 35, 4-[5-chloro-2,2′,5′-trioxo-1′-[4-(trifluoromethyl)benzyl]spiro[indole-3,3′-pyrrolidin]-1(2H)-yl]butanoic acid] had an inhibition constant Ki of 681 nM. For the compound `COc1ccccc1CN1C(=O)CC2(C1=O)C(=O)N(CC(=O)O)c1ccc(Cl)cc12` (stereo not drawn) [Compound 54, [5-chloro-1′-(2-methoxybenzyl)-2,2′,5′-trioxospiro[indole-3,3′-pyrrolidin]-1(2H)-yl]acetic acid], the inhibition constant Ki came out at 153 nM. Turning to `COc1c(C)cnc(CN2C(=O)CC3(C2=O)C(=O)N(CC(=O)O)c2ccc(Cl)cc23)c1C` (stereo not drawn) [Compound 75, [5-chloro-1′-[(4-methoxy-3,5-dimethylpyridin-2-yl)methyl]-2,2′,5′-trioxospiro[indole-3,3′-pyrrolidin]-1(2H)-yl]acetic acid], the inhibition constant Ki is 510 nM. As to `O=C(O)CN1C(=O)C2(CC(=O)N(Cc3cnc(Cl)cc3Cl)C2=O)c2cc(Cl)ccc21` (stereo not drawn) [Compound 76, [5-chloro-1′-[(4,6-dichloropyridin-3-yl)methyl]-2,2′,5′-trioxospiro[indole-3,3′-pyrrolidin]-1(2H)-yl]acetic acid], the Ki came out at 12 nM. For `O=C(O)CN1C(=O)C2(CC(=O)N(Cc3cccs3)C2=O)c2cc(Cl)ccc21` (stereo not drawn) [Compound 77, [5-chloro-2,2′,5′-trioxo-1′-(2-thienylmethyl)spiro[indole-3,3′-pyrrolidin]-1(2H)-yl]acetic acid], the Ki was 75 nM. For the compound `COc1ccnc(CN2C(=O)CC3(C2=O)C(=O)N(CC(=O)O)c2ccc(Cl)cc23)c1OC` (stereo not drawn) [Compound 78, [5-chloro-1′-[(3,4-dimethoxypyridin-2-yl)methyl]-2,2′,5′-trioxospiro[indole-3,3′-pyrrolidin]-1(2H)-yl]acetic acid], affinity was put at a Ki of 101 nM. `O=C(O)CN1C(=O)C2(CC(=O)N(Cc3csc(-c4cccc(Cl)c4)n3)C2=O)c2cc(Cl)ccc21` (stereo not drawn) [Compound 103, [5-chloro-1′-{[2-(3-chlorophenyl)-1,3-thiazol-4-yl]methyl}-2,2′,5′-trioxospiro[indole-3,3′-pyrrolidin]-1(2H)-yl]acetic acid] showed a Ki of 6 nM. `O=C(O)CN1C(=O)C2(CC(=O)N(Cc3ccccc3F)C2=O)c2cc(Cl)ccc21` (stereo not drawn) [Compound 104, [5-chloro-1′-(2-fluorobenzyl)-2,2′,5′-trioxospiro[indole-3,3′-pyrrolidin]-1(2H)-yl]acetic acid] had a Ki of 24 nM. As for `Cc1onc(-c2ccccc2)c1CN1C(=O)NC2(C1=O)C(=O)N(CC(=O)O)c1ccc(Cl)cc12` (stereo not drawn) [Compound 106, [5′-chloro-1-[(5-methyl-3-phenylisoxazol-4-yl)methyl]-2,2′,5-trioxospiro[imidazolidine-4,3′-indol]-1′(2′H)-yl]acetic acid], the figure is 1120 nM.
